Assay results reported in patent publication US20240180880A1, “METHODS OF USING EHMT2 INHIBITORS IN TREATING OR PREVENTING BLOOD DISORDERS” (Epizyme, Inc., priority 2017, published 2024).

Test system: Various cell lines
Assay: Pretreatment model (7+3 or 7+7) combination proliferation assay, cellular ATP luminescence, Loewe synergy
Format: cell-based
Details: several cell lines
Description: Pretreatment model: Various cell lines were seeded in flasks at densities that ensured log-linear growth rates for the duration of the assay. […] Cultures were incubated in a humidified atmosphere of 5% CO2 at 37° C. for 4 days. On Day 4 cells were spun down, resuspended in fresh medium, counted and diluted to the original cell density in new flasks. […] Cells were then spun down on Day 7, re-suspended in fresh medium and plated to assay-ready 384 well plates with an automated multichannel dispenser. […] Compounds listed in Table 7 were dispensed with a HP-D300 nanoliter dispenser (Tecan, Mannedorf, Switzerland), with each plate containing 8 combination partners. Plates were then incubated for an additional three or seven days as noted in FIG. 1D to follow a 7+3 or 7+7 model (cell lines with slow growth characteristics were tested in a 7+7 model). Quantification of proliferation through measurement of cellular adenosine triphosphate (ATP) was performed via a luminescent cell viability assay and read on a plate reader with luminescence module. […]
Fa was calculated with the formula:
Fa=1−(Luminescence of test compound/Luminesence of untreated control)

Question: Which results are given for `CNc1cc(C)nc(Nc2ccc(OC)c(OCCCN3CCCC3)c2)n1` [Compound 205]?
Answer: combination effect on proliferation (Loewe) (Compound 205 and ATRA (FIG. 1B)): synergy; combination effect on proliferation (Loewe) (Compound 205 and Venetoclax (FIG. 1C)): synergy
